Data: patent publication US20190328753A1, “COMPOSITIONS AND METHODS FOR TREATING OCULAR DISEASES” (priority 2015, published 2019)
Several values for one entry are separate records, joined by “and”; a condition that tells them apart may be missing. Identical values can stand only once.

Legend:
Corneal epithelial cells = test: Lipid production in corneal epithelial cells, dilutions of 0.025 mg/ml formulation, Oil Red O (Example 7); type: cell-based; settings: seventh day
Procedure: Corneal epithelial cells were cultured in vitro to about 30% confluence and treated with various dilutions of a 0.025 mg/mL spironolactone eye drop formulation (i.e. 50×, 100×, 500×, 1000×, and 5000×, corresponding to 0.0005 mg/ml, 0.00025 mg/ml, 0.00005 mg/ml, 0.000025 mg/ml, and 0.000005 mg/ml). The cell medium with spironolactone was changed every two days. On the seventh day, the cells were stained for lipids with Oil Red O.

[1] = tested on: patients with moderate to severe meibomian gland disease; test: Pilot study (Example 3): topical spironolactone ophthalmic suspension in MGD, retrospective pre-post
[2] = post-treatment, n=20, lissamine green, scale 0-3
[3] = post-treatment, n=20, scale 0-4
[4] = pre vs post-treatment, n=20, positive = score decrease, scale 0-4
[5] = pre-post change, n=20, scale 0-3
[6] = pre-post change, n=20, scale 0-4

CC(=O)SC1CC2=CC(=O)CCC2(C)C2CCC3(C)C(CCC34CCC(=O)O4)C12 (stereo not drawn) [spironolactone, 7α-acetylthio-3-oxo-17α-pregn-4-ene-21,17-carbolactone]
lipid production (Oil Red O) (Corneal epithelial cells; 1000× dilution (0.000025 mg/ml)): lipid production was still present
lipid production (Oil Red O) (Corneal epithelial cells; 5000× dilution (0.000005 mg/ml)): no lipid is being formed
side effects after topical administration ([1]; patients of the pilot study): A small percentage of the patients reported a mild temporary burning sensation in the eye
Vision OD, Mean ([1]; post-treatment, n = 19): 0.069±0.051 log Mar units and 0.069 log Mar units
Schirmer's OD, Mean ([1]; post-treatment, n=20): 13.6 mm
Schirmer's OS, Mean ([1]; post-treatment, n=20): 14.6 mm
Vision OS, Mean ([1]; post-treatment, n=20): 0.063±0.032 log Mar units and 0.063 log Mar units
Conjunctival OD (Nasal), Mean [1, 2]: 0.83±0.189 and 0.83
Conjunctival OD (Temporal), Mean [1, 2]: 0.55±0.181 and 0.55
Conjunctival OS (Nasal), Mean [1, 2]: 0.60±0.148 and 0.60
Conjunctival OS (Temporal), Mean [1, 2]: 0.40±0.134 and 0.40
Keratitis OD Corneal, Mean [1, 2]: 0.050±0.050 and 0.050
Keratitis OS Corneal, Mean [1, 2]: 0.20±0.156 and 0.20
Anterior Blepharitis, Mean [1, 3]: 0.38±0.114 and 0.38
Obstruction, Mean [1, 3]: 1.58±0.236 and 1.58
Turbidity, Mean [1, 3]: 2.3±0.193 and 2.3
Vascularity, Mean [1, 3]: 1.48±0.253 and 1.48
Zone A, Mean [1, 3]: 3.125±0.188 and 3.125
Subjective Global Assessment, Mean ([1]; post-treatment, n=20, scale 0-10): 4.6±0.534 and 4.6
improvement of turbidity score, percent ([1]; pre vs post-treatment, n=20): 22.03%
improvement of zone A score, percent ([1]; pre vs post-treatment, n=20): 11.97%
mean improvement in anterior blepharitis score [1, 4]: 0.175±0.230
mean improvement in obstruction score [1, 4]: 0.40±0.222
mean improvement in turbidity score [1, 4]: 0.65±0.141
mean improvement in vascularity score [1, 4]: 0.25±0.194
mean improvement in zone A score [1, 4]: 0.425±0.186
improvement in self-reported global assessment scores ([1]; pre vs post-treatment, n=20, positive = score decrease, scale 0-10): 1.4±0.597
Vision OD (log Mar units), Change % ([1]; pre-post change, n = 19): 213.64%
Vision OD, mean change ([1]; pre-post change, n = 19): 0.047±0.043 log Mar units and 0.047 log Mar units
Anterior Blepharitis, Change % ([1]; pre-post change, n=20): −31.82%
Conjunctival OD (Nasal), Change % ([1]; pre-post change, n=20): −20.00%
Conjunctival OD (Temporal), Change % ([1]; pre-post change, n=20): −29.49%
Conjunctival OS (Nasal), Change % ([1]; pre-post change, n=20): −36.84%
Conjunctival OS (Temporal), Change % ([1]; pre-post change, n=20): 20.00%
Keratitis OD (Corneal), Change % ([1]; pre-post change, n=20): −50.00%
Keratitis OS (Corneal), Change % ([1]; pre-post change, n=20): 0.00%
Obstruction, Change % ([1]; pre-post change, n=20): −20.25%
Schirmer's OD (mm), Change % ([1]; pre-post change, n=20): −3.71%
Schirmer's OD, mean change ([1]; pre-post change, n=20): −0.525±1.496 mm and −0.525 mm
Schirmer's OS (mm), Change % ([1]; pre-post change, n=20): 1.75%
Schirmer's OS, mean change ([1]; pre-post change, n=20): 0.250±1.008 mm and 0.25 mm
Subjective Global Assessment, Change % ([1]; pre-post change, n=20): −23.33%
Turbidity, Change % ([1]; pre-post change, n=20): −22.03%
Vascularity, Change % ([1]; pre-post change, n=20): −14.45%
Vision OS (log Mar units), Change % ([1]; pre-post change, n=20): −7.20%
Zone A, Change % ([1]; pre-post change, n=20): −11.97%
Conjunctival OD (Nasal), Mean Change [1, 5]: −0.20±0.142 and −0.20
Conjunctival OD (Temporal), Mean Change [1, 5]: −0.23±0.187 and −0.23
Conjunctival OS (Nasal), Mean Change [1, 5]: −0.35±0.146 and −0.35
Conjunctival OS (Temporal), Mean Change [1, 5]: 0.10±0.204 and 0.10
Keratitis OD Corneal, mean change [1, 5]: −0.05±0.114 and −0.05
Keratitis OS Corneal, mean change [1, 5]: 0.00±0.126 and 0.00
Anterior Blepharitis, mean change [1, 6]: −0.175
Obstruction, mean change [1, 6]: −0.4
Turbidity, mean change [1, 6]: −0.65
Vascularity, mean change [1, 6]: −0.25
Zone A, mean change [1, 6]: −0.425
Subjective Global Assessment, mean change ([1]; pre-post change, n=20, scale 0-10): −1.4
